Test results as given in patent US10449137B2, “Antimicrobial composition” (Conopco, Inc., priority 2015, dated 2019).

Tested on: E. coli ATCC 10536
Assay: In-vitro micro-dilution assay for determination of antimicrobial activity
Format: cell-based
Details: for Average Residual Log (CFU/mL): E. coli ATCC 10536, 10^6 cells/mL in 10 mM sodium phosphate buffer, contact time 4 hours, about 37° C., plated on MacConkey agar; for antimicrobial action (in words): low concentration, E. coli ATCC 10536, 4 hours contact
Description: In-vitro Micro-dilution Assay for Determination of Antimicrobial Activity of Different Compositions:
The organism used for the assay was E. coli ATCC 10536
The procedure that was followed is given below: • a) First, the bacterial suspension corresponding to 10^6 cells/mL was prepared in 10 mM Sodium phosphate buffer. For this purpose the sodium phosphate buffer was prepared as follows: • To prepare the sodium phosphate buffer two different solutions were made. The first solution was prepared by dissolving 27.6 g of NaH2PO4.H20 (MW=138) in 500 mL of MilliQ water and made up the volume to 1 L with MilliQ water. This was then autoclaved and stored at room temperature. The molarity of the resultant solution was 0.2. • Then, the second solution was prepared by dissolving 53.62 g of […] (MW=268.1) in 500 mL of MilliQ water and made up the volume to 1 L with MilliQ water. This was then autoclaved and stored at room temperature. The molarity of the resultant solution was 0.2. • 19 mL of the first solution and 81 mL of the second solution was added together followed by the addition of 100 mL of MilliQ water to obtain a 200 mL solution of sodium phosphate buffer of molarity 0.1 with pH 7.4. • The required level of molarity that was need for the experiments were obtained by diluting the above solution. • b) Then 135 μL/well of the above bacterial suspension was taken and plated in a 96 well microtiter plate. • c) After that 15 μL of 100 mM sodium phosphate buffer was added in all well for all the samples. • d) Then the required test compositions were added in the well for the test. • e) The reaction volume for all the test samples was 300 μL. This reaction volume was adjusted by adding water. • f) The following samples were tested: • Example A: Only Culture • Example B: 1% niacinamide • Example C: 0.01% thymol • Example D: 0.01% terpineol • Example E: 0.01% thymol+0.01% terpineol • Example F: 0.01% Farnesol • Example G: 0.02% Farnesol • Example H: 1% niacinamide+0.01% Farnesol • Example I: 1% niacinamide+0.02% Farnesol • Example 1: 1% niacinamide+0.01% thymol+0.01% terpineol • Example 2: 1% niacinamide+1 μg/mL of LL-37+0.01% thymol+0.01% terpineol • For the above purpose, Thymol was procured from Nishant Aromas, India (Purity: 99%), Terpineol was also procured from Nishant Aromas, India (Purity: 99%), LL-37 (AMP) was procured from Sigma (Cat no: 94261),Niacinamide was procured from Veer Chemicals (Purity: 99%) and Farnesol was procured from Sigma-Aldrich (Cat. No: F203). • g) The contact time for the above test (for all the samples) was 4 hours and the temperature was maintained at about 37° C. • h) After the above contact time, the culture was serially diluted and plated on MacConkey Agar Medium (from Difco) and left it for 24 hours. After that, the residual colonies were counted to determine the bacterial kill/Residual Log.

| Compound | Average Residual Log (CFU/mL) | antimicrobial action (in words) |
| --- | --- | --- |
| NC(=O)c1cccnc1 [Example B, niacinamide] | 6.42 Log (CFU/mL) | – |
| Cc1ccc(C(C)C)c(O)c1 [Example C, thymol] | 6.35 Log (CFU/mL) | not effective |
| CC(C)=CCCC(C)=CCCC(C)=CCO [Example F, Farnesol] | 6.40 Log (CFU/mL) | – |
| CC(C)=CCCC(C)=CCCC(C)=CCO [Example G, Farnesol] | 6.35 Log (CFU/mL) | – |
| terpineol [Example D] | 6.45 Log (CFU/mL) | not effective |
